Test results reported in BindingDB's records for doi:10.1111/j.1432-1033.1976.tb10435.x (Gesellschaft Fur Molekularbiolische Forschung Mbh, 1976).

Molecular target: Isoleucine--tRNA ligase (Escherichia coli (strain K12), UniProt P00956)
Experiment: Competitive Ligand Binding Assay
Conditions: pH 7.5; 20 °C
Description: Utilizing an analytical ultracentrifuge, the binding constants of various amino acids and isoleucine analogues to IleRS were estimated from their competition with radioactively labeled L-isoleucine.

Sequence of Isoleucine--tRNA ligase (P00956 whole entry): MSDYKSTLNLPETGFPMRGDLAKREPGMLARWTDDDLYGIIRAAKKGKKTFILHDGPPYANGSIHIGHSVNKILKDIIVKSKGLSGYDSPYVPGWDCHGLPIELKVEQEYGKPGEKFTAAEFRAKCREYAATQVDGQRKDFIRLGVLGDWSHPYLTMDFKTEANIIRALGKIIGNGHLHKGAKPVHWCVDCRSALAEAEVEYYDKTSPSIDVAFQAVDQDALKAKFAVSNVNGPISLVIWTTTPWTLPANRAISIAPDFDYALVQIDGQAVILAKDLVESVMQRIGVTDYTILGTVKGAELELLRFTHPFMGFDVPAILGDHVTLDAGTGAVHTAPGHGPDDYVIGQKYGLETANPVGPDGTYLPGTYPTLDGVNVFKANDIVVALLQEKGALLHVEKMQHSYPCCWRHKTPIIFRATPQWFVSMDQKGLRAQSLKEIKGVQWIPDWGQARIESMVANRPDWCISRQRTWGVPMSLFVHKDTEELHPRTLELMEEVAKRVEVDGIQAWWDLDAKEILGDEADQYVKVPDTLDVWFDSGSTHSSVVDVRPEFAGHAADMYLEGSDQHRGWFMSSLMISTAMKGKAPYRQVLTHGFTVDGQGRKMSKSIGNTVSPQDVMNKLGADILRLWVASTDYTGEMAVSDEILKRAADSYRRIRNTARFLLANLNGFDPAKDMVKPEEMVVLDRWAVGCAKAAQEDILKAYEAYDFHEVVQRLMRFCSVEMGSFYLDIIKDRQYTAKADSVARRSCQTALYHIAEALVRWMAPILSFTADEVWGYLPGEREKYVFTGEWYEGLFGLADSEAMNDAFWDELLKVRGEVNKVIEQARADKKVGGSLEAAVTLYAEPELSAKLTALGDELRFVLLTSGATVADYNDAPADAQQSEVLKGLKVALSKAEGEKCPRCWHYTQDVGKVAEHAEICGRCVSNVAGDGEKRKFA

Compound | Ki [mM]
CCC[C@H](CC)C(N)C(=O)O (stereo partly drawn) [(3S)-2-amino-3-ethylhexanoic acid] | 5
CC(C)[C@@H](C)[C@H](N)C(=O)O [(2S,3R)-2-amino-3,4-dimethylpentanoic acid] | 5
CC(C)[C@H](C)[C@H](N)C(=O)O [(2S,3S)-2-amino-3,4-dimethylpentanoic acid] | 0.0455
CCCC[C@@H](C)C(N)C(=O)O (stereo partly drawn) [(3R)-2-amino-3-methylheptanoic acid] | 16.7
CC(C)[C@H](N)CO [(2S)-2-amino-3-methylbutan-1-ol] | 14.3
CCC(CC)C(N)C(=O)O (stereo unspecified) [2-amino-3-ethylpentanoic acid] | 0.53
CCCCC[C@H](N)C(=O)O [(2S)-2-aminoheptanoic acid] | 16.7
CC(C)CCC(N)C(=O)O (racemic) [2-amino-5-methylhexanoic acid] | 3.33
CC(C)CC[C@H](N)C(=O)O [(2S)-2-amino-5-methylhexanoic acid] | 2.5
CC(C)(C)CC(N)C(=O)O (racemic) [2-amino-4,4-dimethylpentanoic acid] | 12.5
CCC(CC)[C@H](N)C(=O)O [(2S)-2-amino-3-ethylpentanoic acid] | 0.56
CC[C@H](C)C[C@H](N)C(=O)O [(2S,4S)-2-amino-4-methylhexanoic acid] | 2

The remaining lines, values ahead:

Ki [mM] | Compound
1.67 | CCC[C@@H](C)C(N)C(=O)O (stereo partly drawn) [(3R)-2-amino-3-methylhexanoic acid]
8.33 | CCC(C)[C@H](N)CO (stereo partly drawn) [(2S)-2-amino-3-methylpentan-1-ol]
3.33 | CC(C)[C@@H](C)C(N)C(=O)O (stereo partly drawn) [(3R)-2-amino-3,4-dimethylpentanoic acid]
2.5 | CCCC[C@H](C)C(N)C(=O)O (stereo partly drawn) [(3S)-2-amino-3-methylheptanoic acid]
12.5 | CC(C)(C)C[C@H](N)C(=O)O [(2S)-2-amino-4,4-dimethylpentanoic acid]
5 | CCC[C@@H](CC)C(N)C(=O)O (mixture of isomers) [(3R)-2-amino-3-ethylhexanoic acid]
0.05 | CCC[C@H](C)[C@H](N)C(=O)O [(2S,3S)-2-amino-3-methylhexanoic acid]
0.0588 | CCC[C@H](C)C(N)C(=O)O (stereo partly drawn) [(3S)-2-amino-3-methylhexanoic acid]
1.25 | CCC(C)(C)[C@H](N)C(=O)O (racemic) [2-amino-3,3-dimethylpentanoic acid]
